We go through 1 compound from PMC8400955 (Pharmaceuticals, 2021).

Data set [1] has as its target T1, CYP2B6 (Homo sapiens, UniProt P20813).
T1 sequence (P20813 1-491): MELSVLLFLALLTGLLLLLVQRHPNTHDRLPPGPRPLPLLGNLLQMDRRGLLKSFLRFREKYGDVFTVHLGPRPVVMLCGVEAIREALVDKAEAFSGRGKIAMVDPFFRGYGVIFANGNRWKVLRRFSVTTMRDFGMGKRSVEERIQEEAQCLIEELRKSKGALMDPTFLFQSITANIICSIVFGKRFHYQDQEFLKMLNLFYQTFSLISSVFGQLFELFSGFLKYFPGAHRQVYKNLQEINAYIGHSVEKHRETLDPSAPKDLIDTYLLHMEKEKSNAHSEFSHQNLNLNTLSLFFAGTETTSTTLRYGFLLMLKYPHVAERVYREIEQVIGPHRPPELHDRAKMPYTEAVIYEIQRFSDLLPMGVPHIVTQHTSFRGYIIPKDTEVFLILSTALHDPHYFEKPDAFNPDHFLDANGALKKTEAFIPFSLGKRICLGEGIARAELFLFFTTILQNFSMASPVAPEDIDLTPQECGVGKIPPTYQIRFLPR
Briefly: CYP phenotyping, recombinant CYP2B6.
Procedure: Bactosomes prepared from E. coli that heterologously expressed individual human CYP isoforms together with human CYP reductase were obtained from CYPEX LTD (Scotland, UK), and stored at −80 °C prior to use. […] Timepoints were taken at 0, 5, 10, 15, 20, and 30 min. Substrate disappearance was used to calculate intrinsic clearance (Clint) and half-life (t1/2). All incubations were performed in triplicate. […] The chemical inhibitors for CYP1A2, 2A6, 2B6, 2C8, 2C9, 2C19, 2D6, and 3A4 were furafylline, tranylcypromine, ticlopidine, montelukast, sulfaphenazole, N-3-benzylnirvanol, quinidine, and ketoconazole, respectively. Timepoints were collected at 0, 15, 30, 45, and 60 min, and the remaining percentage of the parent drug at each timepoint was calculated (the calculation details are available in the Supplementary Materials). All incubations were performed in triplicate.
1.3.1 Intrinsic Clearance (Heterologously Expressed Human Cytochrome P450) All calculations were carried out using Microsoft Excel. The slope, k, was determined by linear regression of the natural logarithm of percent parent disappearance vs. incubation time curve. Peak areas for test article and internal standard were determined from extracted ion chromatograms. The peak area ratio was used to calculated for the results.
The half-life value (t1/2 rCYPi) was determined from the slope value: […]

Data set [2] has as its system monkey plasma proteins. In words: Plasma protein binding by equilibrium dialysis, monkey. Type of data set: in vitro ADME. The settings on record: for Remaining: 6 h. The procedure:
(§1) The in vitro binding of ZB716 to plasma proteins was determined by equilibrium dialysis technique in mouse, rat, dog, monkey, and human plasma (EDTA-K2 as anticoagulant), over the concentration range of 0.1–10 μM. The free concentration of ZB716 was below the lower limit of quantitation at 0.1, 1, and 10 μM in human, monkey, dog, rat, and mouse plasma.
(§2) The equilibrium dialysis method was used to investigate the in vitro binding of ZB716 to human, monkey, dog, rat, and mouse plasma proteins. The dialysis phosphate buffer solution (100 mM, pH 7.4) and plasma samples containing 0.1, 1, and 10 μM of ZB716 were added to separate chambers of dialysis wells of the HTDialysis device. The dialysis plate was placed in an incubator at 37 °C with 5% CO2 at approximately 100 rpm for 6 h. After incubation, the seal was removed, and 50 μL each of post-dialysis samples was pipetted from both the buffer and plasma chambers into fresh 96-well plates. The samples were analyzed via UPLC–MS/MS. The bound fraction, unbound fraction, recovery (%), and remaining (%) were calculated by Equations (2)–(5):%Unbound = (Conc.buffer chamber/Conc.plasma chamber) × 100(2) %Bound = 100% − %Unbound (3) %Recovery = (Conc.buffer chamber + Conc.plasma chamber)/Conc.Total sample × 100 (4) %Remaining = Conc.6h/Conc.0h × 100 (5)

Assay in data set [3]: as above
Type of data set: in vitro ADME. The settings on record: plasma (EDTA-K2 as anticoagulant). How it is done:
as §1, §2

`C[C@]12CC[C@@H]3c4ccc(B(O)O)cc4C[C@@H](CCCCCCCCC[S+]([O-])CCCC(F)(F)C(F)(F)F)[C@H]3[C@@H]1CC[C@@H]2O` (some centres unmarked) [ZB716, fulvestrant-3-boronic acid]: the half-life at 2 µM in data set [1] (human) worked out at 41 ± 6.8 min. Moreover, the Clint in data set [1] (recombinant CYP2B6, 2 µM ZB716) is reported as 0.343 ± 0.052 µL/min/pmol CYP. In data set [2] (0.1 μM), this compound displayed a Bound greater than 96.4%, an Unbound of less than 3.63% and a Remaining of 65.3 ± 2.8%. In data set [2] (1 μM), the Bound was greater than 99.6%, the Unbound is recorded as less than 0.326% and the Remaining was found to be 70.9 ± 4.8%. In data set [2] (10 μM), this compound yielded a Bound greater than 99.97%, an Unbound of less than 0.0308% and a Remaining of 93.9 ± 10.0%. In data set [3] (pH 7.4, 0.1 μM), this compound registered a recovery at 6 h, 0.1 μM of less than 68.2%. In data set [3] (pH 7.4, 1 μM), this compound registered a recovery at 6 h, 1 μM of less than 70%. The compound further had a recovery at 6 h, 10 μM in data set [3] (pH 7.4, 10 μM) of less than 87.2%.
